Active and inactive are the calls of the source. The calls are words filed in the database; no cut-off is given here.
Assays:
[1] = tested on: Mus musculus; test: Cognition enhancing effect in albino Swiss CD-1 mouse assessed as reversal of scopolamine-induced amnesia at 20 to 30 mg/kg, ip treated 30 mins prior to acquisition trial followed by scopolamine challenge immediately after acquisition trial by passive avoidance test (reference value: 39.31 +/- 4.01 secs); format: functional, organism-based
[2] = molecular target: T1, Histamine H3 receptor (Homo sapiens, UniProt Q9Y5N1); test: Displacement of [3H]N-alpha-methylhistamine from full length human H3 receptor expressed in HEK293 cell membranes after 90 mins
T1 sequence (Q9Y5N1 whole entry): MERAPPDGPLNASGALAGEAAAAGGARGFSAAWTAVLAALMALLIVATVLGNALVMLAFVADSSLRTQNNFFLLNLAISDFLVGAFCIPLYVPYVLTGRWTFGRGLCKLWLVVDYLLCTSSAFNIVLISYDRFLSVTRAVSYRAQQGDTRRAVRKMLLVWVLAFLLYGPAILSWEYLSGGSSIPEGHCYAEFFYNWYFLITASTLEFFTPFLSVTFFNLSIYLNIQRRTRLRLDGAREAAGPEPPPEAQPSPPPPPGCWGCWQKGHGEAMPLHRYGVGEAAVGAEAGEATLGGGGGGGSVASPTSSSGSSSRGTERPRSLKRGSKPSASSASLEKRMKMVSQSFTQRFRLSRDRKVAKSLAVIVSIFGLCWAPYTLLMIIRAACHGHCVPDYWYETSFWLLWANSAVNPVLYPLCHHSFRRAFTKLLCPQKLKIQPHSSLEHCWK

[3] = molecular target: T1, Histamine H3 receptor; test: Antagonist activity at human H3 receptor expressed in HEK293 cells assessed as inhibition of RAMH-induced reduction of forskolin-stimulated cAMP accumulation after 30 mins by Ulight-based TR-FRET assay; format: functional, cell-based
[4] = molecular target: Muscarinic acetylcholine receptor M3 (Cavia porcellus) (UniProt Q8VH26); test: Agonist activity at muscarinic M3 receptor in guinea-pig ileum assessed as induction of contractions at 1 to 3 uM after 15 mins; format: functional
Sequence of Muscarinic acetylcholine receptor M3 (Cavia porcellus) (Q8VH26 1-587): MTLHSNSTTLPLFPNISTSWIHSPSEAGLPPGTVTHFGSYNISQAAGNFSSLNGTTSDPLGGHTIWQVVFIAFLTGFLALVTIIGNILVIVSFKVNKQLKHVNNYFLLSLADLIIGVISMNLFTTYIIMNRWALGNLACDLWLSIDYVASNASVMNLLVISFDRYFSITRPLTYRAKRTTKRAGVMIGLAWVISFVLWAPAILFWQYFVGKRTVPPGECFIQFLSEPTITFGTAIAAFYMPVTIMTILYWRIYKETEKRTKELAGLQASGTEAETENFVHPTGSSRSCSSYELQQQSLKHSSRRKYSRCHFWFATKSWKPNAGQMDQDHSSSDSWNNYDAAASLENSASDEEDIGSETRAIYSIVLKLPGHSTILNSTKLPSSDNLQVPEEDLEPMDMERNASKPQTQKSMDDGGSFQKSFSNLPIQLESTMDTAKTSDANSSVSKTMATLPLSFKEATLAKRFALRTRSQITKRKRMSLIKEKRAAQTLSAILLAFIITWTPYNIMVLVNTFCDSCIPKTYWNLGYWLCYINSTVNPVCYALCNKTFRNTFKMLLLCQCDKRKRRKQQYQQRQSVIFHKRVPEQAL

[5] = tested on: Rattus norvegicus; test: Anticonvulsant activity in Sprague-Dawley rat assessed as protection against maximal electroshock-induced seizures at 30 mg/kg, ip after 0.5 hrs; format: functional, organism-based
[6] = tested on: Rattus norvegicus; test: Anticonvulsant activity in Sprague-Dawley rat assessed as protection against maximal electroshock-induced seizures at 30 mg/kg, ip after 0.25 hrs; format: functional, organism-based
[7] = tested on: Mus musculus; test: Anticonvulsant activity in albino CF-1 mouse assessed as protection against maximal electroshock-induced seizures at 50 mg/kg, ip after 1 hr; format: functional, organism-based
[8] = tested on: Mus musculus; test: Anticonvulsant activity in albino CF-1 mouse assessed as protection against maximal electroshock-induced seizures at 50 mg/kg, ip after 4 hrs; format: functional, organism-based
[9] = tested on: Mus musculus; test: Neurotoxicity in albino CF-1 mouse assessed as increase in subcutaneous pentylenetetrazole-induced continuous seizures at 50 mg/kg, ip measured after 0.5 hrs; format: toxicity, organism-based; settings: in vivo
[10] = tested on: Mus musculus; test: Neurotoxicity in albino CF-1 mouse assessed as increase in subcutaneous pentylenetetrazole-induced continuous seizures at 50 mg/kg, ip measured after 2 hrs; format: toxicity, organism-based; settings: in vivo
[11] = tested on: Mus musculus; test: Neurotoxicity in albino CF-1 mouse at 50 mg/kg, ip after 1 hr by rotarod test; format: toxicity, organism-based; settings: in vivo
[12] = tested on: Mus musculus; test: Neurotoxicity in albino CF-1 mouse at 50 mg/kg, ip after 4 hrs by rotarod test; format: toxicity, organism-based; settings: in vivo
[13] = tested on: Mus musculus; test: Neurotoxicity in albino CF-1 mouse at 30 mg/kg, ip after 0.25 hrs by rotarod test; format: toxicity, organism-based; settings: in vivo
[14] = tested on: Mus musculus; test: Neurotoxicity in albino CF-1 mouse at 30 mg/kg, ip after 0.5 hrs by rotarod test; format: toxicity, organism-based; settings: in vivo
[15] = tested on: Mus musculus; test: Neurotoxicity in albino CF-1 mouse at 30 mg/kg, ip after 2 hrs by rotarod test; format: toxicity, organism-based; settings: in vivo
[16] = tested on: Mus musculus; test: Neurotoxicity in albino CF-1 mouse at 30 mg/kg, ip after 4 hrs by rotarod test; format: toxicity, organism-based; settings: in vivo
[17] = tested on: Mus musculus; test: Neurotoxicity in albino CF-1 mouse at 65 mg/kg after 0.25 hrs by rotarod test; format: toxicity, organism-based; settings: in vivo
[18] = tested on: Mus musculus; test: Neurotoxicity in albino CF-1 mouse at 65 mg/kg after 4 hrs by rotarod test; format: toxicity, organism-based; settings: in vivo
[19] = tested on: Mus musculus; test: Anticonvulsant activity in albino CF-1 mouse assessed as protection against 32 mA current-induced seizure at 50 mg/kg, ip after 4 hrs by 6 Hz psychomotor test; format: functional, organism-based
[20] = tested on: Mus musculus; test: Neurotoxicity in albino CF-1 mouse at 50 mg/kg after 0.5 hrs by rotarod test; format: toxicity, organism-based; settings: in vivo
[21] = tested on: Mus musculus; test: Neurotoxicity in albino CF-1 mouse at 50 mg/kg after 4 hrs by rotarod test; format: toxicity, organism-based; settings: in vivo
[22] = tested on: Mus musculus; test: Anticonvulsant activity in albino CF-1 mouse assessed as protection against 44 mA current-induced seizure at 50 mg/kg, ip after 2 hrs by 6 Hz psychomotor test; format: functional, organism-based
[23] = tested on: Mus musculus; test: Neurotoxicity in albino CF-1 mouse at 50 mg/kg after 0.25 hrs by rotarod test; format: toxicity, organism-based; settings: in vivo
[24] = Neurotoxicity in ip dosed Sprague-Dawley rat after 0.25 hrs by rotarod test; format: toxicity, organism-based; settings: in vivo
[25] = Neurotoxicity in po dosed Sprague-Dawley rat after 0.25 hrs by rotarod test; format: toxicity, organism-based; settings: in vivo
[26] = tested on: Mus musculus; test: Anticonvulsant activity in ip dosed albino CF-1 mouse assessed as protection against maximal electroshock-induced seizures after 1 hr; format: functional; settings: CF-1, ip
[27] = tested on: Rattus norvegicus; test: Anticonvulsant activity in ip Sprague-Dawley rat assessed as protection against subcutaneous pentylenetetrazole-induced seizures measured after 0.25 hrs; format: functional
[28] = Therapeutic index, ratio of ip dosed albino CF-1 mouse TD50 to ip dosed albino CF-1 mouse ED50 for MES assay; format: toxicity, organism-based; settings: in vivo, read-out: TI
[29] = Therapeutic index, ratio of ip dosed Sprague-Dawley rat TD50 to ip dosed Sprague-Dawley rat ED50 for MES assay; format: toxicity, organism-based; settings: in vivo, read-out: TI
[30] = Therapeutic index, ratio of po dosed Sprague-Dawley rat TD50 to po dosed Sprague-Dawley rat ED50 for MES assay; format: toxicity, organism-based; settings: in vivo, read-out: TI
[31] = Therapeutic index, ratio of ip dosed albino CF-1 mouse TD50 to ip dosed albino CF-1 mouse ED50 for 44 mA current-induced 6 Hz psychomotor test; format: toxicity, organism-based; settings: in vivo, read-out: TI
[32] = tested on: Mus musculus; test: Effect on spontaneous locomotor activity in ip dosed albino Swiss CD1 mouse assessed as inhibition of number of light beam crossings treated for 30 mins measured for next 30 mins in 10 min intervals; format: organism-based; settings: in vivo, 0.5 h
[33] = molecular target: Histamine H1 receptor (Homo sapiens) (UniProt P35367); test: Displacement of [3H]-pyrilamine from human histamine H1 receptor expressed in CHO cell membranes at 1 uM relative to chlorpheniramine
Sequence of Histamine H1 receptor (Homo sapiens) (P35367 whole entry): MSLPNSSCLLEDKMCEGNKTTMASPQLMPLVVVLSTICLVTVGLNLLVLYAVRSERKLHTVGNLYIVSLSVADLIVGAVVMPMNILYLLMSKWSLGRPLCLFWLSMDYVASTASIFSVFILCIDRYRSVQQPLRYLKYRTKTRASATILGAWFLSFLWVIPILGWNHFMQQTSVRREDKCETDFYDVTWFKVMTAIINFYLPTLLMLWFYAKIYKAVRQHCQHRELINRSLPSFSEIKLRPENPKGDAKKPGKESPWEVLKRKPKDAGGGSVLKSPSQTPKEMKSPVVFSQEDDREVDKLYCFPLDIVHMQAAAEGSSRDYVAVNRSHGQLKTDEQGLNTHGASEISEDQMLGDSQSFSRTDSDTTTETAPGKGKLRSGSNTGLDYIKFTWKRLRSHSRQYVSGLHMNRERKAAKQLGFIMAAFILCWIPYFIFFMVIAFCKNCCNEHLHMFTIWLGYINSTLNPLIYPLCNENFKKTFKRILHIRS

[34] = molecular target: D(1A) dopamine receptor (Homo sapiens) (UniProt P21728); test: Displacement of [3H]-SCH23390 from human dopamine D1 receptor expressed in HEK293 cell membranes at 1 uM relative to fluphenazin
Sequence of D(1A) dopamine receptor (Homo sapiens) (P21728 whole entry): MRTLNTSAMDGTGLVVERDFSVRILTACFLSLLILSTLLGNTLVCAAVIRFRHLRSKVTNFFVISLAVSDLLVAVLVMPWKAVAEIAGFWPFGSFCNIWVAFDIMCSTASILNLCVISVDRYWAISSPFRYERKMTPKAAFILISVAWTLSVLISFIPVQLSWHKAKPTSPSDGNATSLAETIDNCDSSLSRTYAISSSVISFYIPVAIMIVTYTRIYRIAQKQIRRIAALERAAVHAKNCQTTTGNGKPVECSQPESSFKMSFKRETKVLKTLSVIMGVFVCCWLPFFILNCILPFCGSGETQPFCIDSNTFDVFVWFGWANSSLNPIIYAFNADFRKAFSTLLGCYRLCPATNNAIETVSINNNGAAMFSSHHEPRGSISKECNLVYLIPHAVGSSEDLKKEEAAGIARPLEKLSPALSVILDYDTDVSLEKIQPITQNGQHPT

[35] = tested on: HEK293; test: Cytotoxicity against HEK293 cells assessed as reduction in cell viability after 72 hrs by MTS assay; format: cell-based; settings: Homo sapiens, HEK293, 72 h
[36] = tested on: IMR-32; test: Cytotoxicity against human IMR32 cells assessed as reduction in cell viability after 72 hrs by MTS assay; format: cell-based; settings: IMR-32, 72 h
[37] = tested on: HepG2; test: Cytotoxicity against human HepG2 cells assessed as reduction in cell viability after 72 hrs by MTS assay; format: cell-based; settings: HepG2, 72 h
[38] = tested on: Salmonella typhimurium; test: Mutagenicity in Salmonella typhimurium TA100 assessed as increase in number of revertants at 1 uM after 90 mins by Ames test; format: toxicity, organism-based; settings: salmonella enterica subsp. enterica serovar typhimurium, 1.5 h

c1ccc2c(OCCCCCN3CCCCC3)cccc2c1
Activity [1]: Active | Ki [2]: 0.0539 µM | IC50 [3]: 0.165 µM | inhibition [3]: Dose-dependent effect | Activity [4]: inactive | Activity [5]: Active | Activity [6]: Active | Activity [7]: Active | Activity [8]: inactive | Activity [9]: Non-Toxic | Activity [10]: Non-Toxic | Activity [11]: Non-Toxic | Activity [12]: Non-Toxic | Activity [13]: Non-Toxic | Activity [14]: Non-Toxic | Activity [15]: Non-Toxic | Activity [16]: Non-Toxic | Activity [17]: Non-Toxic | Activity [18]: Non-Toxic | Activity [19]: inactive | Activity [20]: Non-Toxic | Activity [21]: Non-Toxic | Activity [22]: inactive | Activity [23]: Non-Toxic | TD50 at 0.25 h [24]: 60.6 mg/kg | TD50 at 0.25 h [25]: > 500 mg/kg | ED50 [26]: 19.2 mg/kg | ED50 [27]: > 60.6 mg/kg | selectivity ratio [28]: 4.9 | selectivity ratio [29]: 3.4 | selectivity ratio [30]: > 6.4 | selectivity ratio [31]: 1.6 | ED50 [32]: 11.43 mg/kg | inhibition [33]: 17% | inhibition [34]: 6.7% | IC50 [35]: > 50 µM | IC50 [36]: > 50 µM | IC50 [37]: > 50 µM | Activity [38]: Non-Toxic
